US7943606B2, “Compositions and methods to control abnormal cell growth” (CanCure Laboratories, LLC, priority 2005, dated 2011)
Several values for one entry are separate records, joined by “and”; a condition that tells them apart may be missing. Equal values may be shown once.

Tests used:
[1] = system: HL-60, HT-168, PC-3 and T47D human tumor xenografts; assay: Growth of HL-60, HT-168, PC-3 and T47D human tumor xenografts in mice; type: in vivo, mouse
Procedure: Tumor volume was calculated according to the generally accepted formula: V=a^2×b×π/6, where “a” and “b” mean the shortest and longest diameter, respectively, of the measured tumor.

[2] = Toxicological studies in mice; type: in vivo, mouse
Procedure: Accordingly, a well-tolerated dose for CCDTHT in mice is 450 μmole/animal (weighing about 25 g) which corresponds to a dose of 4.6 mg/kg. Therapeutically effective concentrations in humans will exert maximal inhibitory effects on the growth of non-healthy tissues without causing significant toxicity in normal healthy tissues.
Parallel toxicological studies also have been performed with 200-500 μmole/animal doses of the commercially available CCompound1. […] CCompound26, which may have an even better toxicity profile based on in vitro experiments with normal cells, was synthesized much later and has not yet been tested in animal experiments.

HaCaT keratinocytes = assay: Viability of HaCaT keratinocytes; type: cell-based
Procedure: To quantify cell death, around the time when significant and characteristic morphological changes took place, cells were pulse-labeled for 10 minutes with [^3H]thymidine to measure DNA activity as described elsewhere [Tomono, M. and Kiss, Z. (1995), “Ethanol enhances the stimulatory effects of insulin and insulin-like growth factor-I on DNA synthesis in NIH 3T3 fibroblasts,” Biochem. Biophys. Res. Commun. 208, 63-67]. Also, cells were collected as suspensions using trypsin, an established method in cell biology, followed by re-plating of cells in fresh tissue culture medium. If no viable cells were obtained after one week in culture, it meant that the cells at the time of re-plating were dead. Survival values obtained with untreated cells were considered 100%. For the determination of relative number of viable cells after treatments, in most cases the MTT assay was used. This calorimetric assay is based on the ability of living cells, but not dead cells, to reduce 3-(4,5-dimethyl thiazol-2-yl)-2,5-diphenyltetrazolium bromide [Carmichael, J, De Graff, W. G., Gazdar, A. F., Minna, J. D. and Mitchell, J. B. (1987), “Evaluation of tetrazolium-based semi-automated calorimetric assay: Assessment of chemosensitivity testing,” Cancer Res. 47, 936-942]. For this assay, cells were plated in 96-well plates, and the MTT assay was performed both in untreated and treated cell cultures. The MTT assay also was performed at the start of treatments to allow assessment of proliferation rates in the control and treated cell cultures.
HaCaT keratinocytes, frequently used immortalized model cells for studying psoriatic keratinocytes, and HTB-157 human fetus lung fibroblasts were cultured in 10% FBS-containing Dulbecco's modified Eagle's medium (DMEM). Cells were distributed in 96-well plates; when cells were 50-60% confluent, the medium was changed for fresh 10% serum-containing medium, followed by incubations for 48 hours in the absence (□) or presence of 50 μM CCDTHT ? , or 100 μM CCDTHT (▪). The MTT assay was used to determine cell viability. […]

[3] = system: human leukemia xenografts (HL-60); assay: HL-60 human leukemia xenograft model: tumor volume and survival; type: in vivo, mouse
Text: Tumors were developed in first generation hybrid BDF1 (C57 B1 female×DBA/2 male) adult female mice kept at specified pathogen free (SPF) hygienic level. Suspensions of HL-60 human leukemia cells, or approximately 0.1 cm^3 volume of tumor tissue derived from HT-168 human melanoma, PC-3 human prostate adenocarcinoma, T47D human breast carcinoma, MXT mouse mammary cancer, or mouse B16 melanoma cells were implanted subcutaneously to develop the tumors. After 12-18 days when the tumor-bearing mice were first treated, the size of the tumors was in the 0.2-0.4 cm^3 range. All compounds used were dissolved in physiological (0.9%) saline (NaCl), and the agents, alone or in combinations, were applied subcutaneously or intraperitoneally in 50 μl volume. Tumor volume was determined by calipers in three dimensions; this technique is well known to one having ordinary skill in the art. Tumor volume was calculated according to the generally accepted formula: V=a^2×b×π/6, where “a” and “b” mean the shortest and longest diameter, respectively, of the measured tumor.
The HL-60 human leukemia model was developed and treated as described above. On day 12 the mice either remained untreated (Group 1) or were treated with 4.6 mg/kg CCDTHT (Group 2) or 4.6 mg/kg CCDTHT+15 mg/kg highly purified PALP (Group 3). Both CCDTHT and PALP were administered subcutaneously for three 5-day cycles with 2 resting days included between each 5-day cycle. In each group 7 mice were included.

[4] = Body weight of animals in the MXT tumor model; type: in vivo, mouse; conditions: Example 31, CisPt 2 mg/kg i.p. and/or CCDTHT 4.6 mg/kg s.c.
Procedure: The mouse mammary MXT tumor was developed as described above. […] CCDTHT and CisPt were administered subcutaneously and intraperitoneally, respectively, once daily for 10 days, including a 2-day rest period after 5 days of treatment (i.e., the last treatment was on day 19). Each group consisted of 7 animals, and the mean values±std. dev. for tumor volumes and body weight are shown in TABLE 4 and TABLE 5, respectively.
The mouse mammary MXT tumor model was developed and treated as described above. […] CisPt and PALP were administered intraperitoneally and subcutaneously, respectively, seven times on every second day (i.e., treatments were terminated on day 21). Each group included 7 animals; the mean values±std. dev. for tumor volumes and body weight are shown in TABLE 6 and TABLE 7, respectively.
The mouse mammary MXT tumor model was developed and treated as described above. […] In each group 7 mice were included. The mean values±std. dev. for tumor volumes and body weights are shown in TABLE 9 and TABLE 10, respectively.

[5] = CCDTHT 4.6 mg/kg s.c. without or with PALP 15 mg/kg s.c., 5-day cycles

With CC[N+](C)(CC)CCOCc1ccc2sc3ccccc3c(=O)c2c1.[I-] [CCDTHT, N,N-diethyl-N-methyl-2-[(9-oxo-9H-thioxanthen-2-yl)methoxy]-ethanaminium iodide] the weight loss ([1]; 50-400 μmole s.c. once daily) was “In none of the cases did CCDTHT cause significant weight loss”, the “growth of each tumor (HL-60, HT-168, PC-3, T47D)” value ([1]; 200-400 μmole s.c. once daily) was “considerably reduced” and the “death of animals by day 30” value ([2]; 900 μmole (about 9.2 mg/kg)) was 40%. For the same compound, the tissue alterations ([2]; 900 μmole (about 9.2 mg/kg)) was “mild parenchymal degeneration in the heart, focal hypostasis and chronic bronchopneumonia in the lung, and multifocal degeneration of hepatocytes in the liver”, the “change in the composition of various blood constituents” value ([2]; single 450 μmole (about 4.6 mg/kg) or 400 μmole daily for 5 consecutive days) was “did not cause any significant change” and the “pathological alterations in liver, brain, kidney, heart, spleen, intestine and lung” value ([2]; single 450 μmole or 400 μmole daily for 5 consecutive days) was “did not induce significant pathological alterations”. For the same compound, the “reduction in the number of viable HaCaT cells” value (HaCaT keratinocytes; 50-100 μM, 48 hours, MTT) was 85-98% and 85-100%, the inhibition at 100 µM (HaCaT keratinocytes; Homo sapiens, HaCaT, 48 h, read-out: inhibition of DNA synthesis, HaCaT) was roughly 95% and the “viable cells after re-plating of treated HaCaT cells” value (HaCaT keratinocytes; re-plated after treatment, fresh medium for 1 week) was “no viable cells were found”. For the same compound, the “Tumor volume, Day 16” value [3, 5] was 1.26 ± 0.73 cm^3, the “Tumor volume, Day 22” value [3, 5] was 2.74 ± 0.37 cm^3 and the “Tumor volume, Day 26” value [3, 5] was 3.72 ± 0.44 cm^3. For the same compound, the “Tumor volume, Day 12” value ([3]; CCDTHT 4.6 mg/kg s.c. without or with PALP 15 mg/kg s.c., start of treatment) was 0.46 ± 0.32 cm^3, the “survival of leukemic mice” value ([3]; CCDTHT 4.6 mg/kg without or with PALP 15 mg/kg) was 34.9 ± 6.6 days and the “Body weight, Day 14” value ([4]; once daily) was 25.1 ± 0.84 g. The “Body weight, Day 18” value ([4]; once daily) was 26.9 ± 0.93 g, the “Body weight, Day 21” value ([4]; once daily) was 28.8 ± 0.91 g and the “Body weight, Day 7” value ([4]; start of treatment) was 22.8 ± 0.82 g.
